Measured values from PubChem BioAssay AID330 (DTP/NCI, 2004).
Several values for one entry are separate records, joined by “and”; a condition that tells them apart may be missing. Identical values can stand only once. Inconclusive results and toxic doses are left out. The calls were made as follows: active = survival T/C of 150% or more; inactive = T/C below 125% in these data.

Tested on: P388 leukemia ip, CD2F1 mice, survival T/C
Assay: NCI In Vivo Anticancer Drug Screen. Data for tumor model P388 Leukemia (intraperitoneal) in CD2F1 (CDF1) mice
Details: endpoint: median survival time, higher = longer survival
How it was run: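 Mice carrying the transplanted tumor received test compound or vehicle. Survival was recorded in each group, and the value is the treated-group measurement divided by that of the vehicle-treated control group.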

[1] = dose: 50.0 mg/kg/injection, schedule: Q01DX005 (ip), vehicle: Klucel (hydroxypropylcellulose) (HPC)
[2] = dose: 100.0 mg/kg/injection, schedule: Q01DX005 (ip), vehicle: Klucel (hydroxypropylcellulose) (HPC)
[3] = dose: 200.0 mg/kg/injection, schedule: Q01DX005 (ip), vehicle: Klucel (hydroxypropylcellulose) (HPC)
[4] = dose: 60.0 mg/kg/injection, schedule: Q01DX005 (ip), vehicle: saline with Tween-80
[5] = dose: 120.0 mg/kg/injection, schedule: Q01DX005 (ip), vehicle: saline with Tween-80
[6] = dose: 240.0 mg/kg/injection, schedule: Q01DX005 (ip), vehicle: saline with Tween-80
[7] = dose: 25.0 mg/kg/injection, schedule: Q01DX009 (ip), vehicle: saline with Tween-80
[8] = dose: 50.0 mg/kg/injection, schedule: Q01DX009 (ip), vehicle: saline with Tween-80
[9] = dose: 100.0 mg/kg/injection, schedule: Q01DX009 (ip), vehicle: saline with Tween-80
[10] = dose: 200.0 mg/kg/injection, schedule: Q01DX009 (ip), vehicle: saline with Tween-80

Measured: T/C

Nc1ccc2cc(S(=O)(=O)O)c(N=Nc3ccc(-c4ccc(N=Nc5ccc(O)c(C(=O)O)c5)cc4)cc3)c(O)c2c1
inactive: [1] 92 % of control | [2] 97 % of control | [3] 95 % of control

C=CC(=O)OCCCCCCCCCC
inactive: dose: 100.0 mg/kg/injection, schedule: Q04DX003 (ip), vehicle: Klucel (hydroxypropylcellulose) (HPC) 101 % of control | dose: 200.0 mg/kg/injection, schedule: Q04DX003 (ip), vehicle: Klucel (hydroxypropylcellulose) (HPC) 109 % of control | dose: 400.0 mg/kg/injection, schedule: Q04DX003 (ip), vehicle: Klucel (hydroxypropylcellulose) (HPC) 108 % of control

CC(C(=O)c1cc(Cl)cc(Cl)c1O)C1(O)C(=O)Nc2ccccc21 (stereo not given)
inactive: [4] 107 % of control | [5] 100 % of control | [6] 99 % of control

CC(c1ccccc1)N1C(=O)CSC1=S (stereo not given)
inactive: [7] 100 % of control | [8] 100 % of control | [9] 100 % of control | [10] 100 % of control

NC(=O)c1nnn2c1nc(N)c1cc(Cl)ccc12
inactive: [1] 100 % of control | [2] 104 % of control | [3] 99 % of control

COC(=O)C1=C(C)NC(C)=C(C(=O)OC)C(N2C(=O)CCC2=O)C1 (stereo not given)
inactive: dose: 12.5 mg/kg/injection, schedule: Q01DX009 (ip), vehicle: saline with Tween-80 100 % of control | [7] 91 % of control | [8] 88 % of control | [9] 88 % of control

Cn1c(C(C)(C)OC(=O)Oc2ccccc2)cnc1[N+](=O)[O-]
inactive: dose: 100.0 mg/kg/injection, schedule: Q01DX009 (ip), vehicle: Klucel (hydroxypropylcellulose) (HPC) 96 % of control | dose: 200.0 mg/kg/injection, schedule: Q01DX009 (ip), vehicle: Klucel (hydroxypropylcellulose) (HPC) 100 % of control

O=S(=O)(O)O.[Ga]
inactive: dose: 33.0 mg/kg/injection, schedule: Q04DX003 (ip), vehicle: saline sonified 95 % of control | dose: 50.0 mg/kg/injection, schedule: Q01DX009 (ip), vehicle: saline sonified 100 % of control | dose: 50.0 mg/kg/injection, schedule: Q04DX003 (ip), vehicle: saline sonified 110 % of control

O=S(=O)(Cl)c1ccccc1 (tested in a mixture with another compound)
inactive: [4] 104 % of control | [5] 99 % of control | [6] 99 % of control

NC(=S)NNC(=O)CCC(=O)Nc1ccccc1Cl
inactive: [4] 103 % of control | [5] 102 % of control | [6] 99 % of control

CCCCn1c(Cl)c(/C=N\Nc2ccc([N+](=O)[O-])cc2)c2ccccc21
inactive: dose: 25.0 mg/kg/injection, schedule: Q01DX001 (ip), vehicle: saline with Tween-80 86 % of control | dose: 100.0 mg/kg/injection, schedule: Q01DX001 (ip), vehicle: saline with Tween-80 103 % of control and 94 % of control

COc1ccc(CCNC(=O)c2c3nc4c(C(=O)NCCc5ccc(OC)cc5)ccc(C)c4oc-3c(C)c(=O)c2N)cc1
inactive: dose: 50.0 mg/kg/injection, schedule: Q04DX003 (ip), vehicle: DMSO 98 % of control | dose: 100.0 mg/kg/injection, schedule: Q04DX003 (ip), vehicle: DMSO 100 % of control | dose: 200.0 mg/kg/injection, schedule: Q04DX003 (ip), vehicle: DMSO 98 % of control

OC(CCl)Cn1nnc2ccccc21 (stereo not given)
inactive: dose: 50.0 mg/kg/injection, schedule: Q01DX005 (ip), vehicle: saline with Tween-80 103 % of control | dose: 100.0 mg/kg/injection, schedule: Q01DX005 (ip), vehicle: saline with Tween-80 100 % of control | dose: 100.0 mg/kg/injection, schedule: Q04DX003 (ip), vehicle: saline with Tween-80 93 % of control | dose: 200.0 mg/kg/injection, schedule: Q01DX005 (ip), vehicle: saline with Tween-80 94 % of control | dose: 200.0 mg/kg/injection, schedule: Q04DX003 (ip), vehicle: saline with Tween-80 98 % of control | dose: 400.0 mg/kg/injection, schedule: Q04DX003 (ip), vehicle: saline with Tween-80 99 % of control

CCCC1C=C(c2ccccc2)N=C(c2ccccc2)S1 (stereo not given)
inactive: [8] 98 % of control | [9] 101 % of control | [10] 90 % of control
